Results on one compound are retold here after patent US4043759A (priority 1976, dated 1977).

This series can be described thus: Methotrexate concentration in patient serum as function of time after injection, by the radioassay. It counts as in vivo. As for the experimental part:
The preparation of patient samples, such as patient serum and spinal fluid, is as follows:
1. Take 0.3 ml of fluid to be tested and add to 2.7 ml Buffer B to provide a 1:10 dilution.
2. Take 0.3 ml of 1:10 dilution and add to 2.7 ml of Buffer B to provide a 1:100 dilution.
3. Take 0.3 ml of 1:100 dilution and add to 2.7 ml Buffer B to provide a 1:1000 dilution.
4. Take 0.3 ml of 1:1000 dilution and add to 2.7 ml Buffer B to provide 1:10,000 dilution.
6. Centrifuge for 1 or 2 minutes at 2500 × g.
7. Decant supernate liquid into clean tubes.

In the case of `CN(Cc1cnc2nc(N)nc(N)c2n1)c1ccc(C(=O)N[C@@H](CCC(=O)O)C(=O)O)cc1` [Methotrexate], for the setting “after infusion”, the “Concentration of Methotrexate” value came to 66000 ng/mL. This compound also returned a concentration at 24 h (human, 24 hours after injection) of 7200 ng/mL. Besides, the concentration at 48 h (human, 48 hours after injection) stood at 420 ng/mL. This compound gave a concentration at 63 h (human, 63 hours after injection) of 290 ng/mL. The same compound yielded a concentration at 72 h (human, 72 hours after injection) of 200 ng/mL.
